We go through 22 compounds from patent US20120088746A1, “AMIDE DERIVATIVES AS ION-CHANNEL LIGANDS AND PHARMACEUTICAL COMPOSITIONS AND METHODS OF USING THE SAME” (PFIZER INC., priority 2006, published 2012).

By IC50 is commonly meant the concentration needed to halve the response being measured.

The target of this experiment is human VR1 (Homo sapiens, UniProt Q8NER1). As to the kind of experiment: Acid stimulation assay (acid-induced intracellular calcium change, FDSS 6000). The settings on record: final assay buffer pH5.8, 15 min pre-incubation, read-out: IC50 (nM) Low pH. In kind it is cell-based. An excerpt: VR1 antagonistic activity can be determined by the Ca^2+ imaging assay using human VR1 highly expressing cells. The cells that highly express human VR1 receptors are obtainable from several different conventional methods. The one standard method is cloning from human Dorsal Root Ganglion (DRG) or kidney according to the methods such as described in the journal article; Nature, 389, pp 816-824, 1997. Alternatively VR1 receptors highly expressing human keratinocytes are also known and published in the journal article (Biochemical and Biophysical Research Communications, 291, pp 124-129, 2002). […] Furthermore, the method to up regulate human VR1 gene, which is usually a silent gene or don't produce detectable level of VR1 receptors, is also available to obtain propriety cells. Such genetic modification method was described in detail; Nat. Biotechnol., 19, pp 440-445, 2001.
Chain of human VR1 (Q8NER1 whole entry): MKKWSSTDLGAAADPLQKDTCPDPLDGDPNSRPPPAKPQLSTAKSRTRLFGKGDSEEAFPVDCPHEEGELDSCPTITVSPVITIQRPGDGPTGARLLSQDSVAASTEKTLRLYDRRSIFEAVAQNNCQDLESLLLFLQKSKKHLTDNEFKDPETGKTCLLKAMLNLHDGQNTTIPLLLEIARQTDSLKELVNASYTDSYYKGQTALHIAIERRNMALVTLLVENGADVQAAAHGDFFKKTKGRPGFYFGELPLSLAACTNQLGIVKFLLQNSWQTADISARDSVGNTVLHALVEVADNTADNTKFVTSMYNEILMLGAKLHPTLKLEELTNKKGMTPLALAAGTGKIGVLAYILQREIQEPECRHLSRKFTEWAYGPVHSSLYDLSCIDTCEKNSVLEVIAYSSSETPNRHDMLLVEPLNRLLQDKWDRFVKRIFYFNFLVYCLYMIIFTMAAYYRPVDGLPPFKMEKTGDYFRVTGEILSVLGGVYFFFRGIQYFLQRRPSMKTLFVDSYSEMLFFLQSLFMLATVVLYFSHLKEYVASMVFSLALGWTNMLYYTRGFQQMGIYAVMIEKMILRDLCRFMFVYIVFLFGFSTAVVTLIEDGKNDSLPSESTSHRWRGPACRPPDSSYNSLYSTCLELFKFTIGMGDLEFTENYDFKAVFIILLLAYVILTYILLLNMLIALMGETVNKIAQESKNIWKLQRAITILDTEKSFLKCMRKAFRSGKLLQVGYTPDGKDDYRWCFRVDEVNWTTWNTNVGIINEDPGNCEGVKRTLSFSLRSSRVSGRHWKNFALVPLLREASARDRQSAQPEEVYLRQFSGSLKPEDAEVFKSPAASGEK
The cells that express human VR1 receptors were maintained in culture flask at 37° C. in an environment containing 5% CO2 until use in the assay. The intracellular Ca^2+ imaging assay to determine VR1 antagonistic activities were done by following procedures.
The culture medium was removed from the flask and fura-2/AM fluorescent calcium indicator was added to the flask at a concentration of 5 μM in the medium. The flask was placed in CO2 incubator and incubated for 1 hour. Then the cells expressing the human VR1 receptors were detached from the flask follow by washing with phosphate buffer saline, PBS(−) and re-suspended in assay buffer. The 80 tit of aliquot of cell suspension (3.75×10^5 cells/ml) was added to the assay plate and the cells were spun down by centrifuge (950 rpm, 20° C., 3 minutes).
The Acid-induced changes in the intracellular calcium concentration were monitored using FDSS 6000 (Hamamatsu Photonics, Japan), a fluorometric imaging system. The cell suspension in resting buffer (HBSS supplemented with 10 mM HEPES, pH 7.4) were pre-incubated with varying concentrations of the test compounds or resting buffer (buffer control) for 15 minutes at room temperature under the dark condition. The cells were automatically added the stimulating solution (HBSS supplemented with MES, final assay buffer pH5.8) by the FDSS 6000.
The Acid-induced changes in the intracellular calcium concentration were monitored using FDSS 6000 (Hamamatsu Photonics, Japan), a fluorometric imaging system. The cell suspension in resting buffer (HBSS supplemented with 10 mM HEPES, pH 7.4) was pre-incubated with varying concentrations of the test compounds or resting buffer (buffer control) for 15 minutes at room temperature under dark conditions. The cells were automatically added to the stimulating solution (HBSS supplemented with MES, final assay buffer pH5.8) by the FDSS 6000.
(A change in cytosolic calcium serves as a functional read-out for many receptors and channels.)
`C[C@@H](NC(=O)c1cnc2cc(C(C)(C)C)ccc2c1)c1ccc(NS(C)(=O)=O)cc1` [Example 41, 7-TERT-BUTYL-N-((1R)-1-{4-[(METHYLSULFONYL)AMINO]PHENYL}ETHYL)QUINOLINE-3-CARBOXAMIDE]: the IC50 was 29 nM.
On to `Cc1cc([C@@H](C)NC(=O)c2cnc3cc(C(C)(C)C)ccc3c2C)ccc1NS(C)(=O)=O` [Example 42, 7-TERT-BUTYL-4-METHYL-N-((1R)-1-{3-METHYL-4-[(METHYLSULFONYL)AMINO]PHENYL}-ETHYL)QUINOLINE-3-CARBOXAMIDE], for which the IC50 stood at 532 nM.
As to `Cc1cc([C@@H](C)NC(=O)c2cnc3cc(C(F)(F)F)ccc3c2)c(F)cc1NS(C)(=O)=O` [Example 43, N-((1R)-1-{2-FLUORO-5-METHYL-4-[(METHYLSULFONYL)AMINO]PHENYL}ETHYL)-7-(TRIFLUOROMETHYL)QUINOLINE-3-CARBOXAMIDE], the half-inhibitory concentration (IC50) turned out to be 30 nM.
With `CCOc1ccc2cc(C(=O)N[C@H](C)c3ccc(NS(C)(=O)=O)c(C)c3)ccc2n1` [Example 44, 2-ETHOXY-N-((1R)-1-{3-METHYL-4-[(METHYLSULFONYL)AMINO]PHENYL}ETHYL)-QUINOLINE-6-CARBOXAMIDE], the IC50 came out at 15 nM.
With `Cc1cc([C@@H](C)NC(=O)c2ccc3cc(C(F)(F)F)ccc3c2)ccc1NS(C)(=O)=O` [Example 51, N-((1R)-1-{3-METHYL-4-[(METHYLSULFONYL)AMINO]PHENYL}ETHYL)-6-(TRIFLUORO-METHYL)-2-NAPHTHAMIDE], the IC50 stood at 1 nM.
With `Cc1cc([C@@H](C)NC(=O)c2ccc3cc(C4CC4)ccc3c2)c(Cl)cc1NS(C)(=O)=O` [Example 52, (R)—N-(1-(2-CHLORO-5-METHYL-4-(METHYLSULFONAMIDO)PHENYL)ETHYL)-6-CYCLOPROPYL-2-NAPHTHAMIDE], the IC50 worked out at 22 nM.
Regarding `Cc1cc([C@@H](C)NC(=O)c2cnc3cc(C(F)(F)F)ccc3c2)c(Cl)cc1NS(C)(=O)=O` [Example 53, (R)—N-(1-(2-CHLORO-5-METHYL-4-(METHYLSULFONAMIDO)PHENYL)ETHYL)-7-(TRIFLUOROMETHYL)QUINOLINE-3-CARBOXAMIDE], the IC50 stood at 36 nM.
In the case of `Cc1cc([C@@H](C)NC(=O)c2ccc3cc(C(F)(F)F)ccc3c2)ncc1NS(C)(=O)=O` [Example 54, N-((1R)-1-{4-METHYL-5-[(METHYLSULFONYL)AMINO]PYRIDIN-2-YL}ETHYL)-6-(TRIFLUOROMETHYL)-2-NAPHTHAMIDE], the IC50 stood at 12 nM.
Consider `Cc1cc([C@@H](C)NC(=O)c2ccc3cc(C(F)(F)F)ccc3n2)c(Cl)cc1NS(C)(=O)=O` [Example 57, (R)—N-(1-(2-CHLORO-5-METHYL-4-(METHYLSULFONAMIDO)PHENYL)ETHYL)-6-(TRIFLUOROMETHYL)QUINOLINE-2-CARBOXAMIDE], for which the IC50 stood at 58 nM.
As for `Cc1cc([C@@H](C)NC(=O)c2ccc3cc(C4(C)CC4)ccc3c2)ncc1NS(C)(=O)=O` [Example 58, (R)—N-(1-(4-METHYL-5-(METHYLSULFONAMIDO)PYRIDIN-2-YL)ETHYL)-6-(1-METHYL-CYCLOPROPYL)-2-NAPHTHAMIDE], the IC50 was determined as 7 nM.
On to `Cc1cc([C@@H](C)NC(=O)c2ccc3nc(N4CCCC4)ccc3c2)c(F)cc1NS(C)(=O)=O` [Example 68, (R)—N-(1-(2-FLUORO-5-METHYL-4-(METHYLSULFONAMIDO)PHENYL)ETHYL)-2-(PYRROLIDIN-1-YL)QUINOLINE-6-CARBOXAMIDE], for which the IC50 was determined as 293 nM.
The value for `Cc1cc([C@@H](C)NC(=O)c2ccc3nc(C(F)(F)F)cc(N4CCCCC4)c3c2)c(F)cc1NS(C)(=O)=O` [Example 70, 4-PIPERIDIN-1-YL-2-TRIFLUOROMETHYL-QUINOLINE-6-CARBOXYLIC ACID [(R)-1-(2-FLUORO-4-METHANESULFONYLAMINO-5-METHYL-PHENYL)-ETHYL]-AMIDE] was 26 nM.
In the case of `Cc1cc([C@@H](C)NC(=O)c2ccc3nc(C(F)(F)F)cc(N4CCC(F)(F)CC4)c3c2)c(F)cc1NS(C)(=O)=O` [Example 73, 4-(4,4-DIFLUORO-PIPERIDIN-1-YL)-2-TRIFLUOROMETHYL-QUINOLINE-6-CARBOXYLIC ACID [(R)-1-(2-FLUORO-4-METHANESULFONYLAMINO-5-METHYL-PHENYL)-ETHYL]-AMIDE], the IC50 stood at 29 nM.
As for `C[C@@H](NC(=O)c1ccc2cc(C(F)(F)F)ccc2c1)c1ccc(NS(C)(=O)=O)c(CO)c1` [Example 74, N-((1R)-1-{3-(HYDROXYMETHYL)-4-[(METHYLSULFONYL)AMINO]PHENYL}ETHYL)-6-(TRIFLUOROMETHYL)-2-NAPHTHAMIDE], the IC50 was 13 nM.
The value for `Cc1cc([C@@H](C)NC(=O)c2ccc3nc(C(F)(F)F)cc(N4CCC(C(F)(F)F)CC4)c3c2)c(F)cc1NS(C)(=O)=O` [Example 76, 2-TRIFLUOROMETHYL-4-(4-TRIFLUOROMETHYL-PIPERIDIN-1-YL)-QUINOLINE-6-CARBOXYLIC ACID [(R)-1-(2-FLUORO-4-METHANESULFONYLAMINO-5-METHYL-PHENYL)-ETHYL]-AMIDE] was 48 nM; that for `Cc1cc([C@@H](C)NC(=O)c2ccc3ccc(C(F)(F)F)cc3c2)ccc1NS(C)(=O)=O` [Example 77] was 4 nM.
Consider `Cc1cc([C@@H](C)NC(=O)c2ccc3nc(N4CCOCC4)ccc3c2)c(F)cc1NS(C)(=O)=O` [Example 81, ((R)—N-(1-(2-FLUORO-5-METHYL-4-(METHYLSULFONAMIDO)PHENYL)ETHYL)-2-MORPHOLINOQUINOLINE-6-CARBOXAMIDE], for which the 50% inhibitory concentration (IC50) came out at 748 nM.
On to `Cc1cc([C@@H](C)NC(=O)c2ccc3nc(C(F)(F)F)nc(N4CCCCC4)c3c2)c(F)cc1NS(C)(=O)=O` [Example 84, 4-PIPERIDIN-1-YL-2-TRIFLUOROMETHYL-QUINAZOLINE-6-CARBOXYLIC ACID [(R)-1-(2-FLUORO-4-METHANESULFONYLAMINO-5-METHYL-PHENYL)-ETHYL]-AMIDE], for which the IC50 is 51 nM.
For `Cc1cc([C@@H](C)NC(=O)c2ccc3nc(C(F)(F)F)nc(N4CCN(c5cccc(Cl)c5)CC4)c3c2)c(F)cc1NS(C)(=O)=O` [Example 85, 4-[4-(3-CHLORO-PHENYL)-PIPERAZIN-1-YL]-2-TRIFLUOROMETHYL-QUINAZOLINE-6-CARBOXYLIC ACID [(R)-1-(2-FLUORO-4-METHANESULFONYLAMINO-5-METHYL-PHENYL)-ETHYL]-AMIDE], the IC50 worked out at 60 nM.
In the case of `Cc1cc([C@@H](C)NC(=O)c2ccc3nc(C(F)(F)F)nc(N4CC(C)OC(C)C4)c3c2)c(F)cc1NS(C)(=O)=O` (stereo partly drawn) [Example 86, 4-(2,6-DIMETHYL-MORPHOLIN-4-YL)-2-TRIFLUOROMETHYL-QUINAZOLINE-6-CARBOXYLIC ACID [(R)-1-(2-FLUORO-4-METHANESULFONYLAMINO-5-METHYL-PHENYL)-ETHYL]-AMIDE], the IC50 amounted to 7 nM.
The value for `Cc1cc([C@@H](C)NC(=O)c2cnc3cc(C4CC4)cnc3c2)c(F)cc1NS(C)(=O)=O` [Example 87, 7-CYCLOPROPYL-[1.5]NAPHTHYRIDINE-3-CARBOXYLIC ACID [(R)-1-(2-FLUORO-4-METHANESULFONYLAMINO-5-METHYL-PHENYL)-ETHYL]-AMIDE] was 111 nM; that for `COc1ccccc1N1CCN(c2nc(C(F)(F)F)nc3ccc(C(=O)N[C@H](C)c4cc(C)c(NS(C)(=O)=O)cc4F)cc23)CC1` [Example 88, 4-[4-(2-METHOXY-PHENYL)-PIPERAZIN-1-YL]-2-TRIFLUOROMETHYL-QUINAZOLINE-6-CARBOXYLIC ACID [(R)-1-(2-FLUORO-4-METHANESULFONYLAMINO-5-METHYL-PHENYL)-ETHYL]-AMIDE] was 50 nM.
